For 83 compounds, XC50 results are on record in ChEMBL document CHEMBL1157539, “Thousands of chemical starting points for antimalarial lead identification” (Nature, 2010).

The test system of the experiment is Plasmodium falciparum. Nature of the experiment: GSK_TCMDC: Inhibition of Plasmodium falciparum 3D7 in whole erythrocytes, using parasite LDH activity as an index of growth. Conditions: Plasmodium falciparum, 3D7. Type of experiment: functional, organism-based.
Consider `CCN(CC)C(C)(C)CN(Cc1ccc(-c2ccc(C(F)(F)F)cc2)cc1)C(=O)Cn1c(CCc2cccc(F)c2F)nc(=O)c2ccccc21`, for which the XC50 turned out to be 0.958 µM.
In turn, `NCC1CCCN1Cc1cccc(-c2ccc(-c3nc4cc(C(F)(F)F)ccc4[nH]3)cc2)c1` (stereo not drawn) came in with an XC50 of 0.778 µM.
Consider `CC1(C)CCC(C)(C)c2c1ccc(C1CCN(CCCCNC(=O)c3ccc(-c4ccc(C#N)cc4)cc3)CC1)c2OCC(N)=O`, for which the XC50 amounted to 0.421 µM.
In turn, `COC(=O)c1ccc2nc(-c3ccc(/C=C/C(=O)NCc4ccc(Cl)c(Cl)c4)cc3)[nH]c2c1` registered an XC50 of 1.34 µM.
Compound `Cc1cc(N2Cc3ccccc3C2)nc(Nc2cccc(C#N)c2)n1` returned an XC50 of 0.172 µM.
`COc1ccc(NC(=O)[C@H](Cc2ccccc2)Nc2cc(C)nc(Nc3ccccc3)n2)cc1` displayed an XC50 of 1.01 µM.
`CCc1ccc(CN2CCCCC(NC(=O)c3cc(-c4ccccc4F)cs3)C2)cc1` (stereo not drawn) came in with an XC50 of 1.16 µM.
`COc1ccc2ncc(C#N)c(CCN3CCC(NCc4ccc5c(c4)NC(=O)CO5)CC3)c2c1` displayed an XC50 of 0.588 µM.
The compound `Oc1cccc(Nc2ccnc3cc(-c4ccncc4)ccc23)c1` gave an XC50 of 1.05 µM.
In turn, `O=C(/C=C/c1ccccc1O)NCCCCCN1CCC(c2c[nH]c3ccccc23)CC1` yielded an XC50 of 0.827 µM.
As for `CC(=O)Nc1ccc(CN2CCC(N(C)c3cc(NC(=O)c4cccc(F)c4)ccn3)CC2)cc1`, the XC50 was determined as 1.38 µM.
For `C[C@@H](CNc1ccnc(Nc2ccc3[nH]c(=O)[nH]c3c2)n1)c1ccccc1`, the XC50 amounted to 1.1 µM.
On to `N#Cc1ccc(-c2ccc(C(=O)NCCCCN3CCC(c4cc(Br)c5c(c4OCC(N)=O)CCCC5)CC3)cc2)cc1`, for which the XC50 was determined as 0.797 µM.
With `O=C(Cn1nc(Br)nc1[N+](=O)[O-])NCC1CCCCC1`, the XC50 was found to be 1.1 µM.
As for `O=C(/C=C/c1ccc(C(F)(F)F)cc1)NCCCCCN1CCCN(C(=O)Nc2ccc(Cl)c(C(F)(F)F)c2)CC1`, the XC50 came out at 0.202 µM.
For `CC[C@H](NC(=O)c1c(CCCN2CCN(c3ccccc3)CC2)c(-c2ccccc2)nc2cc(O)ccc12)c1ccccc1`, the XC50 is 0.78 µM.
Take `CN(C)CCCOc1c(C(C)(C)C)cc(-c2cc(C(C)(C)C)c(OCCCN(C)C)c(C(C)(C)C)c2)cc1C(C)(C)C`: the XC50 is 0.27 µM.
Regarding `Cc1cc2nc(-c3ccc(OCC(=O)NCc4ccc(C(C)(C)C)cc4)cc3)[nH]c2cc1C`, the XC50 was 1.06 µM.
In the case of `COc1cc(NC(=O)/C=C/c2cc(F)cc(F)c2F)cc(OCCN2CCC3(CC2)OCCO3)c1` it was 0.269 µM; in that of `Cc1ccccc1C1CCN(C2CCC(NC(=O)c3cc(-c4ccccc4)oc3C)CC2)CC1` (stereo not drawn), 1.03 µM; in that of `CC(C)(C)c1ccc(NC(=O)c2ccc(CN3CCCN(CC4CCCCC4)CC3)cc2)cc1`, 0.542 µM.
`Nc1nc2c(ncn2OC[C@H]2COP(=O)(O)CO2)c(=O)[nH]1` registered an XC50 of 0.569 µM.
Consider `COc1ccc2c(c1)CC(CNC[C@H](O)c1cccc(Cl)c1)CC2` (stereo partly drawn), for which the XC50 is 0.988 µM.
In the case of `O=C(Nc1ccc(Cn2ncc(N3CCCNCC3)c(Cl)c2=O)cc1)Nc1cccc(Oc2ccccc2)c1` it was 0.987 µM.
`Cn1nc(-c2ccc(NC(=O)Nc3cc(C(F)(F)F)ccc3F)c(F)c2)c2cnc(NCCCn3ccnc3)nc21` had an XC50 of 0.736 µM.
In the case of `CCC[C@@H]([C@@H](CC(C)C)C(=O)N[C@@H](CCCNc1nccc(C(F)(F)F)n1)C(=O)Nc1nccs1)N(O)C=O` it was 0.373 µM; in that of `COc1ccc(NC(=O)NC2CCN(c3ccnc4cc(Cl)ccc34)CC2)cc1`, 0.731 µM.
Compound `Cc1cc(N(C)CCN(C)C)nc(Nc2ccc(Cl)cc2)n1` returned an XC50 of 0.968 µM.
Turning to `O=S(=O)(NCCN1CCCC1)c1ccc(-c2cccc(CNCc3ccc(F)cc3)c2)s1`, the XC50 was 0.764 µM.
The compound `N#Cc1cccc(NC(=O)Nc2ccc(-c3csc(-c4nc5ccccc5[nH]4)c3)cc2)c1` showed an XC50 of 0.152 µM.
The compound `Cc1ccc2nc3c(cc(C(=O)NCCc4ccccc4)c(=N)n3CCCOC(C)C)c(=O)n2c1` returned an XC50 of 0.892 µM.
For the compound `COc1cc2nc(N3CCC(CNC(=O)c4ccc(-c5ccc(C(=O)N(C)C)cc5C)cc4)CC3)nc(N3CCN(C)CC3)c2cc1OC`, the XC50 is 1.23 µM.
Compound `Cc1cccc(C)c1N1CCN(C2CCC(NC(=O)c3cc4ccccc4[nH]3)CC2)CC1` (stereo not drawn) came in with an XC50 of 0.601 µM.
For the compound `CN1CCN(Cc2cccc(-c3cc4nccc(Nc5ccc(Oc6ccccc6)cc5)c4cc3Cl)c2)CC1`, the XC50 came to 0.728 µM.
Consider `COc1ccccc1-n1c(-c2ccc3ccccc3c2)csc1=NC(=O)c1ccccc1`, for which the XC50 turned out to be 0.204 µM.
In the case of `CCCCCCN1CCC(NCc2cccc([N+](=O)[O-])c2)CC1` it was 0.668 µM; in that of `COc1ccc(CNCc2ccc(-c3cccc(-c4nc5cc(F)ccc5[nH]4)c3)cc2)cc1`, 0.202 µM.
With `O=C(/C=C/c1ccc(C(F)(F)F)cc1)NCCCCCN1CCCN(C(=O)Nc2cccc(Cl)c2)CC1`, the XC50 was 0.992 µM.
`O=C(Nc1nc(-c2ccccn2)cs1)c1ccccc1COc1ccccc1`: the XC50 was 0.972 µM.
For the compound `Cc1cc(N[C@@H](Cc2ccccc2)C(=O)NCc2cccc(F)c2)nc(NCC2CCCCC2)n1`, the XC50 turned out to be 0.855 µM.
Then `OC(COc1ccccc1-c1nc2ccccc2o1)CN1CCCN(CCc2ccccc2)CC1` (stereo not drawn), with 0.758 µM; and `O=C(Nc1cccc(OC2CCN(Cc3ccsc3)CC2)c1)c1ccc(C(F)(F)F)cc1`, with 0.765 µM.
The compound `CC(=O)Nc1ccc(Nc2ncc([N+](=O)[O-])c(Nc3ccccc3C(N)=O)n2)cc1` returned an XC50 of 0.366 µM.
For `Cc1c(C)c2c(c(C)c1O)CC[C@](C)(C(=O)N1CCC(CN3CCC(c4c[nH]c5ccccc45)CC3)CC1)O2`, the XC50 stood at 0.718 µM.
In turn, `Cc1cccc2nc(-c3ccc(-c4ccc(CNCc5cnn(-c6ccccc6)n5)cc4)s3)[nH]c12` showed an XC50 of 0.718 µM.
On to `CCOc1c(N2CCN(CCCCNC(=O)c3ccc(NC(=O)c4ccc(Cl)cc4)cc3)CC2)ccc2ccccc12`, for which the XC50 was 0.684 µM.
`CCCC1(NC[C@@H](O)[C@H](Cc2ccccc2)NC(=O)c2cc(NCC)cc(N3CCCCS3(=O)=O)c2)CCCCC1` gave an XC50 of 0.247 µM.
For `Cc1ccc(/C=C/C(=O)NC2CCC(N3CCC(c4ccccc4C)CC3)CC2)cc1C` (stereo not drawn), the XC50 turned out to be 0.809 µM.
Then `COc1ccc2nccc([C@@H](O)CN3CCC(NCc4ccc5c(c4)N(C)C(=O)CO5)CC3)c2c1`, with 0.745 µM; and `Oc1ccc(Cl)cc1CN1CCC2(CCCN(CC3CCC3)C2)C1` (stereo not drawn), with 0.368 µM.
As to `Cc1ccc(Cn2ncc(N3CCC(N)CC3)c(Cl)c2=O)cc1NC(=O)Nc1ccc(-c2ccccc2)cc1`, the XC50 stood at 0.917 µM.
The compound `CCOC(=O)C1=C(C)NC2=C(C(=O)CCC2)C1c1cn(Cc2ccc(Cl)cc2Cl)nc1-c1ccccc1` (stereo not drawn) yielded an XC50 of 0.625 µM.
Take `COc1ccc(C(=O)C2CC2CN2CC=C(c3c(C)[nH]c4ccccc34)CC2)cc1` (stereo not drawn): the XC50 amounted to 0.304 µM.
In the case of `CCCCNC(=O)C(C)NC(=O)c1ccc(O)c(-c2ccc(Cl)c(Cl)c2)c1` (stereo not drawn), the XC50 came to 0.823 µM.
Then `CCN(CCCN1CCCCC1)c1cc(C)nc(Nc2ccc(C)cc2)n1`, with 0.411 µM; and `O=C(Nc1ccc2c(ccn2C2CCCN(Cc3cc(F)cc(F)c3F)CC2)c1)c1ccco1` (stereo not drawn), with 0.651 µM.
In turn, `COc1ccc(CCNCc2ccc3nc(N)c(C)cc3c2)cc1` gave an XC50 of 0.992 µM.
The compound `COc1c(C2CCN(CCCCNC(=O)c3ccc(C)c(-c4ccc(C(F)(F)F)cc4)c3)CC2)ccc2c1CCCC2` had an XC50 of 0.883 µM.
Then `CCOc1cc(C)ccc1N1CCN(CCCCNC(=O)c2ccc(NC(=O)c3ccc(Cl)cc3)cc2)CC1`, with 0.637 µM; and `Cc1cccc2nc(C3CCN(CC4CCN(C(=O)/C=C/c5ccc(Cl)c(Cl)c5)CC4)CC3)[nH]c12`, with 0.485 µM; and `CCOC(=O)c1nc2ccc(SC3CCCCC3)cn2c1Br`, with 1.06 µM.
In the case of `FC(F)(F)COc1ccc2ccccc2c1CCNCCCCNCCc1c(OCC(F)(F)F)ccc2ccccc12` it was 0.426 µM; in that of `O=C(NCCCCN1CCN(c2nsc3ccccc23)CC1)c1ccccc1C(=O)NCCCCN1CCN(c2nsc3ccccc23)CC1`, 0.887 µM.
Then `Nc1nc(N)c2c(ccc3c2ccn3Cc2ccccn2)n1`, with 0.00831 µM; and `Cc1cc(=NN=Cc2ccccc2Cl)c2ccccc2[nH]1`, with 0.904 µM; and `O=S(=O)(Nc1cccc(CCN2CCC(N3CCCCC3)CC2)c1)c1ccc(Oc2ccccc2)cc1`, with 0.769 µM.
On to `Cc1ccc(NC(=O)c2cccc(CN3CCCN(Cc4cccc(O)c4)CC3)c2)cc1C`, for which the XC50 was 1.04 µM.
Consider `Cc1cc(F)ccc1-c1nc(NCCCNCCc2ccccc2)nc2c1ccc(=O)n2-c1c(F)cccc1F`, for which the XC50 is 0.186 µM.
In the case of `C=CCOC(=O)N1CCC(CNCc2cccc(-c3ccc(-c4nc5ccccc5[nH]4)s3)c2)C1` (stereo not drawn), the XC50 is 0.272 µM.
As for `O=C(Nc1ccccc1)Nc1cccc(-c2ccc(-c3nc4cc(C(F)(F)F)ccc4[nH]3)cc2)c1`, the XC50 worked out at 0.231 µM.
The compound `CCN(CCNS(C)(=O)=O)c1ccc(N)c(C)c1` displayed an XC50 of 0.875 µM.
The compound `CCNc1cc(C(=O)N[C@@H](Cc2ccccc2)[C@H](O)CNC2(CC(C)C)CC2)cc(N2CCCCS2(=O)=O)c1` showed an XC50 of 1.02 µM.
Then `Clc1cc(Br)ccc1-c1ccc(CNCC2CCNCC2)o1`, with 1.51 µM; and `Cc1cc(N2CCOCC2)nc(Nc2ccc(NC(=O)c3cccc4ccccc34)cc2)n1`, with 1.3 µM; and `O=C(NC1CCN(Cc2ccccc2)CC1)c1csc2nc(-c3ccc(Cl)cc3)cn12`, with 0.911 µM.
In the case of `O=C(Nc1cccc(-c2ccc(CN3CCNCC3)cc2)c1)c1cccc(Cl)c1` it was 1.25 µM; in that of `COc1ccc2nccc(N3CCC(SCCNCc4ccc5c(n4)NC(=O)CO5)C3)c2n1` (stereo not drawn), 0.801 µM.
As to `CCc1ccc(C2CCN(CCCCNC(=O)c3ccc(-c4ccc(C#N)cc4)cc3)CC2)c(OCCO)c1`, the XC50 came to 0.938 µM.
Compound `COc1ccc(C2CCN(CCCCNC(=O)c3ccc(NC(=O)c4ccc(Cl)cc4)cc3)CC2)cc1Cl` had an XC50 of 0.843 µM.
`O=C(Nc1ccccc1)N(Cc1ccccc1-c1cccc(CNCc2ccc3c(c2)OCO3)c1)C1CCN(Cc2ccccc2)CC1`: the XC50 stood at 0.108 µM.
On to `Cc1nc2nc(N)nc(N)c2c(C)c1Cc1cccs1`, for which the XC50 was 0.777 µM.
The compound `C(=NN=c1cc[nH]c2ccccc12)c1ccncc1` showed an XC50 of 0.743 µM.
With `CC(C)(CNC(=O)C1CCN(CC2CCCCC2)CC1)c1nc(-c2ccc(Cl)c(O)c2)c(-c2ccncc2)[nH]1`, the XC50 came out at 0.888 µM.
